Converted amounts (≈) assume the structure as drawn.
Test system: pediatric patients with ADHD
Assay: Integrated PKPD model fit to SKAMP total score measurements from the Day 7 classroom evaluation
Assay type: in vivo, human
Conditions: base (final) PKPD model estimate, 81 pediatric patients
Text: This example describes the development of a pharmacokinetic-pharmacodynamic model for the therapeutic effect of a particular methylphenidate formulation and its testing on a population of pediatric patients with ADHD. The drug formulation tested in this example is designated MPH XR-ODT and described in U.S. Publication No. 2014/0030348, which is incorporated herein by reference.
The structural PK model for a plasma concentration following administration of the stimulant was described by two parallel inputs into a central compartment and linear elimination from the central compartment.
Body weight appears as a covariate of CL and V which was included in the model in the following way: CLi=tvCL*Weight^0.655 Equation 1 Vi=tvV*Weight^0.670 Equation 2 where CL, and V, are the clearance and volume of distribution parameters for individual “i”, tvCL and tvV are the typical population clearance and volume of distribution parameters, and weight is body weight in kg. Model parameters were determined using nonlinear mixed-effects modeling with first-order conditional maximum likelihood estimation using Phoenix NLME (Version 6.3).
This phenomenon was readily obvious in the patients that were assigned to the placebo treatment arm. Therefore, the PD model required a drug effect component and a placebo effect component. […]

Question: Which results are given for `COC(=O)C(c1ccccc1)C1CCCCN1` (centres unmarked) [methylphenidate]?
Answer: EC50 (Homo sapiens, simulated plasma concentrations, read-out: EC50, concentration of methylphenidate required to achieve 50% of the maximal reduction in SKAMP total score): 0.0142 mg/L (≈ 0.061 µM); Emax, maximum reduction in SKAMP total score with administration of methylphenidate: 38.1

Source: patent US11166947B2, “Effective dosing of a child for the treatment of ADHD with methylphenidate” (Neos Therapeutics, LP, priority 2016, dated 2021)
